{
  "source": "patent US20240131352A1",
  "about": "“NON-INVASIVE CANCER TREATMENT” (SCIENTIA BIOTECH S.L, priority 2021, published 2024)",
  "key": {"U87MG cells": {"tested_on": "U87MG cells", "conditions": "240 min + HT 42° C. 10 min; for effect on cell viability for U87MG cells: 20 μM compound minute 210 to 240 + TTF 300 kHz, about 8 μT; for effect on viable U87MG cells of TTF+HT+PT: 20 μM pterostilbene minute 120 to 240 + TTF 300 kHz, 8 μT", "protocol": "The hyperthermia applied was 42° C. for 10 minutes (from minute 120 to minute 130). 20 μM of pterostilbene was applied for 120 minutes (from minute 120 to minute 240). […] The magnetic field was applied using a solenoid with approximately 100 μT magnetic flux density at the central axis of the solenoid. The solenoid was placed at a distance from the cell cultures such that the average field strength on the surface of the culture flasks where the cells were attached was 8 μT.\nFIGS. 15B to 15F show microscopic images of in vitro U87MG cell cultures after exposed to different external treatments.\nThe data are means with standard deviation for four independent experiments. Data labelled * indicates a P value (student's t test) less than 0.01 compared to the control. Data labelled + indicates a P value (student's t test) less than 0.01 compared to the TTF-only data. Data labelled # indicates a P value (student's t test) less than 0.01 compared to the TTF+HT data."}, "[1]": {"tested_on": "AsPC1 (pancreatic adenocarcinoma, ATCC) cells", "conditions": "for effect on viable AsPC1 cells of TTF+HT+GEM+PT: 25 μM gemcitabine + 20 μM pterostilbene minute 0 to 240 + TTF 200 kHz, 1.5 μT + HT 52° C. 20 min, all four in combination", "quoted_text": "For TTF data the TT-Field applied was at 200 kHz for 240 mins (from minute 0 to minute 240) for a field intensity of 1.5 μT. For HT data the hyperthermia applied was 52° C. for 20 minutes (from minute 120 to minute 140). For PT data 20 uM of pterostilbene was applied from minute 0 to minute 240.\nFor TTF data, the TT-Field applied was at 200 kHz for 240 mins (from minute 0 to minute 240) for a field intensity of 1.5 μT. For HT data the hyperthermia applied was 52° C. for 20 minutes (from minute 120 to minute 140). For GEM data 25 μM of gemcitabine was applied from minute 0 to minute 240. For PT data 20 μM of pterostilbene was applied from minute 0 to minute 240.\n(§2) For rows including “TTF”, a TT-Field was applied at 200 kHz for 240 mins (from minute 0 to minute 240) for a field intensity of 1.5 μT. For rows including “HT”, hyperthermia applied was at 42 ° C. for U87MG and 52° C. for AsPC1 and A2058 for 20 minutes (from minute 120 to minute 140)."}, "[2]": {"tested_on": "A2058 (melanoma, ATCC) cells", "quoted_text": "For TTF data, the TT-Field applied was at 200 kHz for 240 mins (from minute 0 to minute 240) for a field intensity of 1.5 μT. For HT data the hyperthermia applied was 52° C. for 20 minutes (from minute 120 to minute 140). For PT data 20 μM of pterostilbene was applied from minute 0 to minute 240.\nFor TTF data, the TT-Field applied was at 200 kHz for 240 mins (from minute 0 to minute 240) for a field intensity of 1.5 μT. For HT data the hyperthermia applied was 52° C. for 20 minutes (from minute 120 to minute 140). For PAC data 10 μM of paclitaxel was applied from minute 0 to minute 240.\nas §2"}, "[3]": {"tested_on": "HT-29 (colorectal carcinoma)", "assay": "heating + tumour treating fields + PT in vitro, HT-29", "type": "cell-based", "conditions": "HT-29, in vitro", "source_text": "(§1) The effectiveness of therapy by heating in combination with tumour treating fields and exposure to PT is also observed in other cell lines in vitro, such as A2058 (melanoma), AsPC-1 (pancreas carcinoma), A549 (lung carcinoma), MCF-7 (mammary gland carcinoma), HT-29 (colorectal carcinoma), PC-3 (prostate carcinoma), SK-OV-3 (ovarian carcinoma and HepG2 (hepatocarcinoma)."}, "A549 (lung carcinoma)": {"tested_on": "A549 (lung carcinoma)", "assay": "heating + tumour treating fields + PT in vitro, A549", "type": "cell-based", "source_text": "as §1"}, "C6": {"tested_on": "C6", "assay": "TTF+HT+PT therapy on glioblastoma line C6", "type": "cell-based", "conditions": "compared with U87MG"}, "[4]": {"tested_on": "PC-3 (prostate carcinoma)", "assay": "heating + tumour treating fields + PT in vitro, PC-3", "type": "cell-based", "conditions": "PC-3, in vitro", "source_text": "as §1"}, "[5]": {"tested_on": "SK-OV-3 (ovarian carcinoma)", "assay": "heating + tumour treating fields + PT in vitro, SK-OV-3", "type": "cell-based", "conditions": "SK-OV-3, in vitro", "source_text": "as §1"}, "HepG2 (hepatocarcinoma)": {"tested_on": "HepG2 (hepatocarcinoma)", "assay": "heating + tumour treating fields + PT in vitro, HepG2", "type": "cell-based", "source_text": "as §1"}, "GL261": {"tested_on": "GL261", "assay": "TTF+HT+PT therapy on glioblastoma line GL261", "type": "cell-based", "conditions": "compared with U87MG"}, "[6]": {"tested_on": "MCF-7 (mammary gland carcinoma)", "assay": "heating + tumour treating fields + PT in vitro, MCF-7", "type": "cell-based", "conditions": "MCF-7, in vitro", "source_text": "as §1"}, "[7]": {"tested_on": "GSH in AsPC1 (Pancreatic adenocarcinoma) cells", "assay": "GSH content of AsPC1 cells in vitro (GSH depletion)", "type": "cell-based", "quoted_text": "(§3) For rows including “TTF”, a TT-Field was applied at 200 kHz for 240 mins (from minute 0 to minute 240) for a field intensity of 1.5 μT. For rows including “HT”, hyperthermia applied was at 42 ° C. for U87MG and 52° C. for AsPC1 and A2058 for 20 minutes (from minute 120 to minute 140). For rows including “BSO”, 1 mM of buthione sulfoximine, a specific inhibitor of GSH synthesis, was added to the cell culture medium at the time the cells of the culture were seeded. When HT and TTF were applied in combination with BSO, the HT and TTF were applied 24 hours after seeding."}, "GSH in U87 (GBM) cells": {"tested_on": "GSH in U87 (GBM) cells", "assay": "GSH content of U87MG cells in vitro (GSH depletion)", "type": "cell-based", "quoted_text": "as §3"}, "[8]": {"tested_on": "GSH in A2058 (melanoma) cells", "assay": "GSH content of A2058 cells in vitro (GSH depletion)", "type": "cell-based", "quoted_text": "as §3"}, "[9]": {"conditions": "1 mM BSO + TTF (200 kHz, 1.5 μT, 240 min) + HT (52° C., 20 min) applied 24 hours after seeding"}, "[10]": {"conditions": "1 mM BSO added at seeding, BSO alone, mean ± SD, five experiments"}},
  "note": "Like-named read-outs stand apart in the source and are kept apart here. Marks after values point to notes of the source that are not given here.",
  "data": [
    {"molecule": "OC[C@H]1O[C@@H](Oc2cc(O)cc(/C=C/c3ccc(O)cc3)c2)[C@H](O)[C@@H](O)[C@@H]1O", "note": "[G-diOH-s, 3-glucoside-5,4′-dihydroxystilbene]", "values": [
      {"measurement": "effect on cell viability for U87MG cells", "setting": "U87MG cells", "value": "significant reduction in cell viability"}
    ]},
    {"molecule": "Nc1ccn([C@@H]2O[C@H](CO)[C@@H](O)C2(F)F)c(=O)n1", "note": "[GEM, gemcitabine]", "values": [
      {"measurement": "effect on viable AsPC1 cells of TTF+HT+GEM+PT", "setting": "[1]", "value": "eliminated the AsPC1 cells"}
    ]},
    {"molecule": "CC(=O)O[C@H]1C(=O)[C@@]2(C)[C@H]([C@H](OC(=O)c3ccccc3)[C@]3(O)C[C@H](OC(=O)[C@H](O)[C@@H](NC(=O)c4ccccc4)c4ccccc4)C(C)=C1C3(C)C)[C@]1(OC(C)=O)CO[C@@H]1C[C@@H]2O", "note": "[PAC, (2α,4α,5β,7β,10β,13α)-4,10-Bis(acetyloxy)-13-{[(2R,3 S)-3(benzoylamino)-2-hydroxy-3-phenylpropanoyl]oxy}-1,7-dihydroxy-9-oxo-5,20-epoxytax-11-en-2-yl benzoate]", "values": [
      {"measurement": "effect on viable A2058 cells of TTF+HT+PAC", "setting": "[2]; 10 μM paclitaxel minute 0 to 240 + TTF 200 kHz, 1.5 μT + HT 52° C. 20 min", "value": "eliminated the cells"}
    ]},
    {"molecule": "COc1cc(/C=C/c2ccc(O)cc2)cc(OC)c1", "note": "[pterostilbene, trans-3,5-dimethoxy-4′-hydroxystilbene]", "values": [
      {"measurement": "effectiveness of therapy by heating in combination with tumour treating fields and exposure to PT", "setting": "[3]", "value": "also observed"},
      {"measurement": "effectiveness of therapy by heating in combination with tumour treating fields and exposure to PT", "setting": "A549 (lung carcinoma)", "value": "also observed"},
      {"measurement": "effect on viable U87MG cells of TTF+HT+PT", "setting": "U87MG cells", "value": "effectively eliminates all cells in vitro"},
      {"measurement": "effect on viable U87MG cells of TTF+HT+PT", "setting": "U87MG cells; listed as PT", "value": "completely eliminates all U87MG growing cells"},
      {"measurement": "effect on viable AsPC1 cells of TTF+HT+GEM+PT", "setting": "[1]", "value": "eliminated the AsPC1 cells"},
      {"measurement": "effectiveness of therapy by heating in combination with tumour treating fields and exposure to PT", "setting": "[1]; AsPC-1 (pancreas carcinoma), in vitro", "value": "also observed"},
      {"measurement": "effectiveness of TTF+HT+PT therapy", "setting": "C6", "value": "same effectiveness"},
      {"measurement": "effectiveness of therapy by heating in combination with tumour treating fields and exposure to PT", "setting": "[4]", "value": "also observed"},
      {"measurement": "effectiveness of therapy by heating in combination with tumour treating fields and exposure to PT", "setting": "[5]", "value": "also observed"},
      {"measurement": "effect on viability of A2058 cells of TTF+HT+PT", "setting": "[2]; 20 μM pterostilbene minute 0 to 240 + TTF 200 kHz, 1.5 μT + HT 52° C. 20 min, compared to TTF+HT", "value": "significantly reduced the viability of the cells"},
      {"measurement": "effectiveness of therapy by heating in combination with tumour treating fields and exposure to PT", "setting": "[2]; A2058 (melanoma), in vitro", "value": "also observed"},
      {"measurement": "effectiveness of therapy by heating in combination with tumour treating fields and exposure to PT", "setting": "HepG2 (hepatocarcinoma)", "value": "also observed"},
      {"measurement": "effectiveness of TTF+HT+PT therapy", "setting": "GL261", "value": "same effectiveness"},
      {"measurement": "effectiveness of therapy by heating in combination with tumour treating fields and exposure to PT", "setting": "[6]", "value": "also observed"}
    ]},
    {"molecule": "Oc1ccc(C=Cc2cc(O)cc(O)c2)cc1", "note": "[resveratrol]", "values": [
      {"measurement": "effect on cell viability for U87MG cells", "setting": "U87MG cells", "value": "do not eliminate all U87MG cell growing in vitro"}
    ]},
    {"molecule": "Buthionine sulfoximine [BSO]", "values": [
      {"measurement": "GSH", "setting": "[7]; [9]", "value": "2.49 ± 0.66*^+ nmol/10^6 cells"},
      {"measurement": "GSH", "setting": "[7]; [10]", "value": "3.14 ± 0.79", "unit": "nmol/10^6 cells"},
      {"measurement": "GSH", "setting": "GSH in U87 (GBM) cells; 1 mM BSO + TTF (200 kHz, 1.5 μT, 240 min) + HT (42 °C, 20 min) applied 24 hours after seeding", "value": "1.92 ± 0.59*^+ nmol/10^6 cells"},
      {"measurement": "GSH", "setting": "GSH in U87 (GBM) cells; [10]", "value": "2.10 ± 0.70", "unit": "nmol/10^6 cells"},
      {"measurement": "GSH", "setting": "[8]; [9]", "value": "2.06 ± 0.51*^+ nmol/10^6 cells"},
      {"measurement": "GSH", "setting": "[8]; [10]", "value": "2.24 ± 0.82", "unit": "nmol/10^6 cells"}
    ]}
  ]
}
